From PubChem BioAssay (NCI) come the findings set out here.

Test systems include OVCAR-5 ovarian; SK-MEL-2 melanoma; HOP-62 NSCLC; KM12 colon; 786-0 renal; RPMI-8226 leukemia; CAKI-1 renal; HS 578T breast; SNB-19 CNS; SNB-75 CNS.
Assay in all cases: NCI tumour cell line growth inhibition, 48 h

The structures appear in SMILES notation.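 Compound exposure: 48 hours, 5 concentrations, 96-well plates. Abbreviation: GI50, concentration required for 50% inhibition of growth. TGI: total growth inhibition.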 Some results are limits rather than exact numbers.

As to `C1=CC2=CC=CC3c4nc5ccc6ccccc6c5nc4C(=C1)C23` (configuration not stated), the TGI in the experiment with OVCAR-5 ovarian, in the experiment with SK-MEL-2 melanoma, in the experiment on HOP-62 NSCLC, with KM12 colon, in the experiment on 786-0 renal and in the experiment with RPMI-8226 leukemia was greater than 100 µM throughout. In addition, the TGI in the experiment on CAKI-1 renal, in the experiment on HS 578T breast, in the experiment on SNB-19 CNS and with SNB-75 CNS was greater than 100 µM throughout.
As to `CCCn1c(CN(Cc2nc3ccccc3n2CCC)Cc2nc3ccccc3n2CCC)nc2ccccc21`, the TGI was greater than 89.9 µM in the experiment on OVCAR-5 ovarian; 35.4 µM in the experiment with SK-MEL-2 melanoma; greater than 91 µM with HOP-62 NSCLC; 21.8 µM in the experiment on KM12 colon; greater than 32.3 µM with 786-0 renal; 5.36 µM in the experiment with RPMI-8226 leukemia. Also, the TGI in the experiment with CAKI-1 renal was greater than 29 µM; in the experiment with HS 578T breast it was greater than 95.2 µM; in the experiment with SNB-19 CNS, greater than 100 µM; in the experiment with SNB-75 CNS, 75.1 µM.
Consider `O=P(c1ccccc1)(c1ccccc1)N1O[C@@H](c2ccccc2)C=C[C@H]1c1ccccc1`, for which the TGI in the experiment with OVCAR-5 ovarian was found to be 32.1 µM; in the experiment on SK-MEL-2 melanoma it was 24.9 µM; with HOP-62 NSCLC it was 46.5 µM; with KM12 colon it was 44.4 µM; in the experiment on 786-0 renal it was 23.3 µM; in the experiment with RPMI-8226 leukemia, 56.6 µM. The TGI was determined as 22.4 µM in the experiment with CAKI-1 renal, 44.6 µM in the experiment with HS 578T breast, 30 µM with SNB-19 CNS and 26.5 µM in the experiment with SNB-75 CNS.
Consider `CC1(C)N=C(C(N)=O)c2ncn(CCCO)c2N1`, for which the TGI in the experiment with OVCAR-5 ovarian, in the experiment with HOP-62 NSCLC, in the experiment with KM12 colon, in the experiment on 786-0 renal, in the experiment on RPMI-8226 leukemia and in the experiment on CAKI-1 renal was greater than 100 µM in each case. Further, the TGI with HS 578T breast, with SNB-19 CNS and with SNB-75 CNS was greater than 100 µM each time.
As to `Cc1nn(C(=O)Cc2ccccc2)c2c1C(c1ccc(O)cc1)SC(N)=N2` (configuration not stated), the TGI in the experiment with HOP-62 NSCLC, in the experiment with KM12 colon, with 786-0 renal, in the experiment on RPMI-8226 leukemia, in the experiment with CAKI-1 renal and in the experiment with HS 578T breast was greater than 100 µM in each case. Besides, the TGI in the experiment with SNB-19 CNS and in the experiment with SNB-75 CNS was greater than 100 µM throughout.
Turning to `Brc1cccc(Nc2nc(-c3cccs3)nc3ccc(Br)cc23)c1`, the TGI in the experiment with OVCAR-5 ovarian is 98.2 µM; in the experiment with SK-MEL-2 melanoma, 94.5 µM; in the experiment with HOP-62 NSCLC it was greater than 100 µM; in the experiment with KM12 colon it was 46.3 µM; in the experiment on 786-0 renal it was greater than 100 µM; with RPMI-8226 leukemia, greater than 100 µM. The TGI in the experiment with CAKI-1 renal was 68.5 µM; in the experiment with HS 578T breast, greater than 100 µM; with SNB-19 CNS, 98.7 µM; in the experiment on SNB-75 CNS it was greater than 100 µM.
For the compound `O=c1cc(N=P(c2ccccc2)(c2ccccc2)c2ccccc2)n(-c2ccccc2)c(=O)n1-c1ccccc1`, the TGI is greater than 100 µM in the experiment on OVCAR-5 ovarian; 58.1 µM with SK-MEL-2 melanoma; 32.4 µM in the experiment with HOP-62 NSCLC; greater than 100 µM with KM12 colon; 25.2 µM in the experiment on 786-0 renal; 33 µM in the experiment with RPMI-8226 leukemia. Besides, the TGI in the experiment with CAKI-1 renal is greater than 100 µM; with HS 578T breast it was 58 µM; in the experiment with SNB-19 CNS, 63.5 µM; in the experiment on SNB-75 CNS, 39.9 µM.
Turning to `CO[C@]12CC(=O)C3(C(C[C@H]4CC5CC=C6C[C@@H](OC(C)=O)CC[C@]6(OC(C)=O)C5C[C@@]43C)C1)C1C[C@H]3[C@@H]4CC=C5C[C@@H](OC(C)=O)CC[C@]5(OC(C)=O)[C@H]4CC[C@]3(C)C12` (some centres not stated), the TGI was 43.5 µM with OVCAR-5 ovarian; 41.1 µM in the experiment with SK-MEL-2 melanoma; 37.9 µM in the experiment with HOP-62 NSCLC; 54.3 µM with KM12 colon; greater than 100 µM in the experiment on 786-0 renal; greater than 100 µM with RPMI-8226 leukemia. The TGI came out at 34.3 µM with CAKI-1 renal, 88.9 µM with HS 578T breast, 63.6 µM in the experiment with SNB-19 CNS and 94.2 µM in the experiment on SNB-75 CNS.
For `CN(C)CCCN1C(=S)N(CCCN(C)C)c2c3cc(O)ccc3nc3c([N+](=O)[O-])ccc1c23`, the TGI was found to be 28.5 µM in the experiment on OVCAR-5 ovarian; 15.2 µM in the experiment on SK-MEL-2 melanoma; 15.3 µM in the experiment with HOP-62 NSCLC; 9.51 µM with KM12 colon; 8.55 µM in the experiment on 786-0 renal; 15.5 µM in the experiment with RPMI-8226 leukemia. Further, the TGI in the experiment on CAKI-1 renal amounted to 15 µM; in the experiment with HS 578T breast, 24.4 µM; with SNB-19 CNS, 13.9 µM; with SNB-75 CNS it was 16.9 µM.
In the case of `O=C1CN2C(c3ccccc3)=NN(c3ccc([N+](=O)[O-])cc3)C2(c2ccccc2)c2cc(Cl)ccc2N1CC1CC1` (configuration not stated), the TGI in the experiment on OVCAR-5 ovarian, in the experiment with HOP-62 NSCLC, in the experiment on KM12 colon, in the experiment on 786-0 renal, with RPMI-8226 leukemia and in the experiment on CAKI-1 renal was greater than 100 µM in each case. The TGI with HS 578T breast, with SNB-19 CNS and in the experiment with SNB-75 CNS was greater than 100 µM each time.
For `COc1cc2c(cc1-c1c(C)noc1C)cc(C)c(=O)n2Cc1ccccn1`, the GI50 in the experiment on OVCAR-5 ovarian was 2.78 µM; in the experiment on SK-MEL-2 melanoma, 2.46 µM; in the experiment with HOP-62 NSCLC, 0.489 µM; with KM12 colon it was 7.77 µM; in the experiment on RPMI-8226 leukemia it was 0.307 µM; in the experiment with CAKI-1 renal, 0.284 µM. Moreover, the GI50 in the experiment on HS 578T breast is 0.318 µM; in the experiment with SNB-19 CNS, 1.86 µM; in the experiment on SNB-75 CNS it was 0.0306 µM. In addition, the TGI is greater than 100 µM in the experiment with OVCAR-5 ovarian; greater than 100 µM with SK-MEL-2 melanoma; greater than 100 µM with HOP-62 NSCLC; greater than 100 µM with KM12 colon; 3.86 µM in the experiment on RPMI-8226 leukemia; 23.2 µM in the experiment on CAKI-1 renal. Further, the values for the TGI with HS 578T breast, with SNB-19 CNS and with SNB-75 CNS were 13.3 µM, greater than 100 µM and 0.456 µM, respectively.
Regarding `C=CCn1c(=O)ccn(COCCO)c1=O`, the TGI in the experiment on OVCAR-5 ovarian, in the experiment on SK-MEL-2 melanoma, in the experiment with HOP-62 NSCLC, in the experiment on KM12 colon, in the experiment with RPMI-8226 leukemia and in the experiment with CAKI-1 renal was greater than 100 µM each time. The TGI in the experiment on HS 578T breast, with SNB-19 CNS and with SNB-75 CNS was greater than 100 µM in each case.
`COc1ccc2cc(-c3ccc(-c4ccc(C(=N)N)s4)s3)ccc2c1`: the GI50 was 2.11 µM in the experiment with OVCAR-5 ovarian; 2.66 µM in the experiment with SK-MEL-2 melanoma; 1.78 µM in the experiment with HOP-62 NSCLC; 2.06 µM in the experiment with KM12 colon; 2.16 µM in the experiment with RPMI-8226 leukemia; 8.29 µM in the experiment on CAKI-1 renal. Also, the GI50 is 16.6 µM in the experiment with HS 578T breast, 2.13 µM in the experiment on SNB-19 CNS and 10.4 µM with SNB-75 CNS. Also, the TGI in the experiment with OVCAR-5 ovarian is 4.18 µM; with SK-MEL-2 melanoma, 6.7 µM; with HOP-62 NSCLC, 3.68 µM; in the experiment on KM12 colon, 4.68 µM; with RPMI-8226 leukemia, 5.06 µM; with CAKI-1 renal it was 21.9 µM. For the same compound, the TGI is 50 µM in the experiment on HS 578T breast, greater than 100 µM with SNB-19 CNS and 26.6 µM with SNB-75 CNS.
With `O=C(/C=C/c1ccsc1)c1ccsc1`, the TGI was greater than 100 µM in the experiment on SK-MEL-2 melanoma; greater than 100 µM with HOP-62 NSCLC; 37.7 µM in the experiment on KM12 colon; 47.4 µM in the experiment with 786-0 renal; 47.2 µM with RPMI-8226 leukemia; 41.4 µM in the experiment on CAKI-1 renal. The TGI with HS 578T breast is greater than 100 µM; in the experiment with SNB-19 CNS, 47.7 µM; in the experiment with SNB-75 CNS, greater than 100 µM.
In the case of `O=C(NCCCN(CCCCN(CCCNC(=O)C(F)(F)F)Cc1ccccc1)Cc1ccccc1)C(F)(F)F`, the TGI in the experiment with OVCAR-5 ovarian was 40.8 µM; with KM12 colon it was 25.9 µM; in the experiment on 786-0 renal, 25.1 µM; in the experiment with RPMI-8226 leukemia, 40.5 µM; in the experiment with CAKI-1 renal it was 26.4 µM; with HS 578T breast it was 31.4 µM. Also, the TGI came to 26.6 µM in the experiment with SNB-19 CNS and 27.9 µM in the experiment on SNB-75 CNS.
Turning to `NNC(=O)c1ccc[n+](CCc2ccccc2)c1`, the TGI in the experiment with OVCAR-5 ovarian, in the experiment with HOP-62 NSCLC, with KM12 colon, in the experiment with 786-0 renal, in the experiment with RPMI-8226 leukemia and in the experiment with CAKI-1 renal was greater than 100 µM in each case. Further, the TGI with HS 578T breast, with SNB-19 CNS and in the experiment with SNB-75 CNS was greater than 100 µM throughout.
Regarding `O=C(N=Nc1cc(Cl)ccc1Cl)NNc1cc(Cl)ccc1Cl`, the TGI is 39.8 µM in the experiment on OVCAR-5 ovarian; 51.5 µM in the experiment with SK-MEL-2 melanoma; 40.7 µM with HOP-62 NSCLC; 33.9 µM with KM12 colon; 33.8 µM in the experiment on RPMI-8226 leukemia; 43.7 µM with CAKI-1 renal. For the same compound, the TGI with HS 578T breast is 52.6 µM; in the experiment with SNB-75 CNS, 57.5 µM.
With `Cc1c(S(=O)(=O)/N=C(\N)Nc2ccc(Cl)cc2)sc2ccc(Cl)cc12`, the TGI with OVCAR-5 ovarian was 38.1 µM; in the experiment on SK-MEL-2 melanoma it was 33.9 µM; in the experiment on HOP-62 NSCLC, 36.9 µM; with KM12 colon, greater than 100 µM; with 786-0 renal it was 33.7 µM; in the experiment with RPMI-8226 leukemia, greater than 100 µM. In addition, the figures for the TGI with HS 578T breast, with SNB-19 CNS and with SNB-75 CNS were 59 µM, 57.4 µM and 43.5 µM, respectively.
On to `C(=N\NC1=NCCCN1)/c1ccc2ccccc2c1`, for which the TGI in the experiment with OVCAR-5 ovarian came out at 21.8 µM; with SK-MEL-2 melanoma, 28.2 µM; in the experiment on HOP-62 NSCLC, 26.5 µM; in the experiment with KM12 colon, 28 µM; in the experiment on 786-0 renal, 24.2 µM; in the experiment on RPMI-8226 leukemia, 28.3 µM. The TGI in the experiment with HS 578T breast was determined as 41.3 µM; in the experiment with SNB-19 CNS, 31.8 µM; with SNB-75 CNS it was 18.4 µM.
As for `CN(C)C(=S)S`, the TGI with OVCAR-5 ovarian is greater than 100 µM; with SK-MEL-2 melanoma, greater than 93.8 µM; with KM12 colon, greater than 100 µM; with 786-0 renal it was greater than 100 µM; with RPMI-8226 leukemia it was greater than 78.9 µM; with CAKI-1 renal it was greater than 100 µM. Moreover, the TGI in the experiment with HS 578T breast, with SNB-19 CNS and with SNB-75 CNS was greater than 100 µM each time.
